Earlier results as cited in patent US20110092601A1, “LYSINE-SPECIFIC DEMETHYLASE INHIBITORS” (THE JOHNS HOPKINS UNIVERSITY, priority 2007, published 2011).

Tested on: P19 embryonal carcinoma cells
Conditions: P19 embryonal carcinoma cells treated with tranylcypromine

N[C@@H]1C[C@H]1c1ccccc1 [tranylcypromine, (1R,2S)-2-phenylcyclopropan-1-amine]
Effect on transcription of the Egr1 and Oct4 genes: transcriptional de-repression of the Egr1 and Oct4 genes
